Experimental data from patent US5904915A, “Method of diagnosing pathological state of tumor cells using a diagnostic agent for glycometabolic function” (Nihon Medi-Physics Co., Ltd., priority 1996, dated 1999).
“Also recorded” adds a separate entry of the source. Where two headings read alike, the source gives them in different places.

How the values were obtained:
[1] = tested on: LS180 cells; test: Effect of extracellular glucose concentration on accumulation and metabolism of FDG and AFDG; assay type: cell-based, human
Method: Then, cells were washed three times with a cold PBS, lysed with 50% ethanol and the lysate was assayed for metabolites.

[2] = tested on: LS180 cells; test: Effect of IAA (hexokinase inhibition) on accumulation and metabolism of FDG and AFDG; assay type: cell-based, human
From the text: (§1) Then, cells were washed three times with a cold PBS, lysed with 50% ethanol and assayed for metabolites.

[3] = tested on: LS180 cells; test: Effect of DNP on accumulation and metabolism of FDG and AFDG; assay type: cell-based, human
From the text: as §1

[4] = tested on: LS180 cells; test: Time-course accumulation of FDG and AFDG in LS180 tumor cells; assay type: cell-based, human
Method: LS180 cells were stripped off from the petri dish using trypsin, inoculated on a plate having 24 holes at a concentration of 20×10^4 cells/ml and subjected to the uptake experiment after 24 hours. […] Radioactivity of the lysed solution was measured by an Autowell gamma counter (ARC-2000, manufactured by Aloka corporation).

[5] = tested on: GLUT; test: Effect of DNP on rate of uptake of 3-OMG (GLUT transport) in LS180 cells; assay type: cell-based, human
From the text: While it is known that 2,4-dinitrophenol, an uncoupling agent for mitochondrion, causes expression of GLUT on cell membrane to normal cells by a transient decrease of intracellular ATP as a trigger, it has not been confirmed that it has a similar effect on tumor cells. Therefore, transport of [H-3]-3-O-methylglucose in the DNP-treated tumor cells was studied for the case in which GLUT was inhibited by cytocharasin B and for the case in which it was not inhibited, respectively. [H-3]-3-O-methylglucose is a D-glucose derivative which is not subjected to metabolism such as phosphorylation after take up into cells and therefore can suitably be used in an experiment for studying transport ability of GLUT. In the case of DNP treatment, accumulation of [H-3]-3-O-methylglucose was increased by about 70% as compared with the case of no treatment (Table 1), and therefore it was considered that the amount of GLUT expressed on the cell membrane was increased by 70% with the treatment by DNP. The increase in amount was by far smaller than the increase described for normal cells. This is due to the fact that the amount of GLUT expressed on the tumor cell membrane is by far greater than the amount for normal cells.
For studying uptake of [H-3 ]-3-O-methylglucose (3-OMG) into cells excluding nonspecific bonding, usually cytocharasin B is used. After incubating 10^6 LS180 cells in a medium containing 200 μM DNP placed in a plate having 24 holes, the medium was changed to a medium containing 5 μCi 3-OMG and 200 μM […], respectively, and additionally 50 μM cytocharasin B or a medium without cytocharasin B and the respective cultures were incubated for 60 seconds. Immediately after, the medium was removed and cells were washed three times with a cold PBS containing 0.1 mM phloretin and lysed with 500 μl of 0.2 N NaOH solution. After lysis, a 200 μl portion was used for quantitative determination of proteins and the remaining 300 μl was mixed with a scintillator and radioactivity was measured by a liquid scintillation counter (LSC 5000, manufactured by Aloka corporation). The taken-up amount of 3-OMG which may be inhibited by cytocharasin B was integrated from the difference in mean values of 10 holes in the plate for 3-OMG uptake without cytocharasin B. The results of the experiment are shown in Table 1.

[6] = tested on: LS180 cells; test: Effect of administered dose of AFDG on its intracellular accumulation; assay type: cell-based, human; settings: increase of the dose of AFDG
[7] = tested on: LS180 cells; test: Temperature dependence of intracellular accumulation of AFDG; assay type: cell-based, human; settings: 60 minutes after administration, 5 μCi
Method: In order to study the temperature dependence of intracellular accumulation of AFDG, an uptake experiment was conducted different from Experiment 1. Cells were suspended in a culture medium at a concentration of 1×10^6 cells/ml and incubated in portions of 1 ml at 4° C. or 37° C. for 15 minutes. Then, 5 μCi of AFDG was added and incubated for 2, 5, 10, 30 and 60 minutes, respectively. At every determined times, cells were centrifuged to make a pellet, which was washed with a cold PBS. After washing twice, the pellet was lysed by 0.2N NaOH solution and assayed for radioactivity.

[8] = tested on: LS180 cells; test: Metabolism of AFDG and FDG in LS180 cells (TLC of metabolites); assay type: cell-based, human
Method: After carrying out an experiment according to Experiment 1, cells were stripped off from the plate using 100 μl of 50% ethanol and the solution was centrifuged at 15000 rpm. A 25 μl aliquot of supernatant was subjected to analysis of metabolites by thin-layer chromatography (TLC). The eluent was acetonitrile/water=95/5, and the carrier was silica gel 60. The plate after development was cut at 5 mm intervals and assayed for radioisotope with a gammer counter. Total radioactivity of respective metabolites were calculated from the ratio of metabolites obtained in TLC.

[9] = tested on: LS180 cells; test: Effect of AFDG administration on accumulation of glucose; assay type: cell-based, human; settings: amount used in this experiment
[10] = tested on: hexokinase; settings: 5 μM IAA, 37° C.; inferred from accumulation of FDG
From the text: as §1

Compound: OC[C@H]1OC(O)[C@H]([18F])[C@@H](O)[C@@H]1O (stereo partly shown) [FDG, 2-[F-18]fluorodeoxyglucose, reference compound]
- intracellular accumulation on doubling glucose concentration in medium [1]: decreased
- intracellular accumulation in the presence of IAA [2]: remarkably decreased
- intracellular accumulation in the presence of DNP [3]: increased
- activation at 200 µM ([3]; Homo sapiens, LS180, read-out: increase of uptake of FDG with DNP): ~80%
- accumulation in time course [4]: accumulated and increased almost linearly

Compound: CO[C@H]1[C@H](O)[C@@H](CO)OC(O)[C@@H]1O (stereo partly shown) [[H-3]3-OMG, [H-3]-3-O-methylglucose]
- Accumulation of [H-3]3-OMG, Difference, DNP treatment ([5]; Cytocharasin B absent minus present, 200 μM DNP): 3460 dpm/min/100 μg protein
- Accumulation of [H-3]3-OMG, Difference, Control ([5]; Cytocharasin B absent minus present, no DNP): 2014 dpm/min/100 μg protein
- Accumulation of [H-3]3-OMG, DNP treatment ([5]; Cytocharasin B absent, 200 μM DNP): 4763 ± 669 dpm/min/100 μg protein
- Accumulation of [H-3]3-OMG, Control ([5]; Cytocharasin B absent, no DNP): 3235 ± 307 dpm/min/100 μg protein
- Accumulation of [H-3]3-OMG, DNP treatment ([5]; Cytocharasin B present (50 μM), 200 μM DNP): 1303 ± 229 dpm/min/100 μg protein
- Accumulation of [H-3]3-OMG, Control ([5]; Cytocharasin B present (50 μM), no DNP): 1511 ± 231 dpm/min/100 μg protein
- increase of accumulation of [H-3]-3-O-methylglucose with DNP treatment ([5]; compared with no treatment): about 70%
- Difference relative to control, Control ([5]; in parentheses, no DNP): 1.00
- Difference relative to control, DNP treatment ([5]; ls180 cells, 200 µM): 1.71

Compound: CC(=O)OC[C@H]1OC(OC(C)=O)[C@H]([18F])[C@@H](OC(C)=O)[C@@H]1OC(C)=O (stereo partly shown) [AFDG, 1,3,4,6-tetra-O-acetyl-2-[F-18]fluorodeoxyglucose]
- change in intracellular accumulation with administered dose [6]: increased with the increase of the dose of AFDG
- accumulation of AFDG at 4° C. relative to that at 37° C. [7]: one fourth
- presence of FDG and FDG-6P in cells after uptake of AFDG ([8]; 5 minutes after administration): substantially absent
- production of FDG-6P from AFDG relative to that from FDG ([8]; 60 minutes after administration): 1.63 times
- FDG-6P share of total intracellular radioactivity (sum of AFDG, FDG and FDG-6P) ([8]; 60 minutes after administration of AFDG): about 50%
- hydrolysis of AFDG to FDG in cells ([8]; by esterase, intracellular): quickly hydrolyzed by esterase to FDG and quickly hydrolyzed to form FDG and fast
- stability in the extracellular medium ([8]; extracellular medium): stable
- velocity of hydrolysis of AFDG compared with phosphorylation of FDG ([8]; intracellular): greater
- accumulation of AFDG and that of FDG after administration of AFDG ([8]; time course after 5 minutes): followed a constant course
- accumulation of FDG-6P after administration of AFDG ([8]; time course after 5 minutes): increased linearly with passage of time
- production of FDG-6P on doubling glucose concentration in medium ([1]; 11.2 mM vs 22.4 mM glucose, 60 minutes): did not change; also recorded: no change was observed; also recorded: substantially not affected
- intracellular accumulation on doubling glucose concentration in medium ([1]; 11.2 mM vs 22.4 mM glucose, 60 minutes, after AFDG: accumulation of FDG (hydrolysate)): did not change; also recorded: substantially not affected
- intracellular accumulation in the presence of IAA ([2]; 5 μM IAA, 37° C.): remarkably decreased
- accumulation of glucose when AFDG was administered [9]: not inhibited
- FDG-6P derived from AFDG in the presence of DNP ([3]; 200 μM DNP, 37° C.): decreased
- intracellular accumulation in the presence of DNP ([3]; 200 μM DNP, 37° C.): decreased
- accumulation in time course ([4]; LS180 cells, 2 to 60 minutes, 5 μCi): accumulated rapidly in cells in a nonlinear manner
- mechanism of uptake into cells ([4]; concluded from the experiments): taken up by simple diffusion

Compound: O=C(O)CI [IAA, iodoacetate]
- hexokinase activity in the presence of IAA [10]: remarkably decreased

Compound: O=[N+]([O-])c1ccc(O)c([N+](=O)[O-])c1 [DNP, 2,4-dinitrophenol]
- increase of amount of GLUT expressed on the cell membrane with DNP ([5]; inferred from 3-OMG accumulation): 70%
